Measurements as given in patent US20170334899A1, “AMINO-SUBSTITUTED ISOTHIAZOLES” (Bayer Pharma Aktiengesellschaft, priority 2014, published 2017).

Target: T1, human kinase Mps-1 (Homo sapiens, UniProt P33981)
T1 construct: N-terminally GST-tagged human full length recombinant Mps-1 kinase; GST (N); purchased Invitrogen, Karslruhe, Germany PV4071
T1 sequence (P33981 1-857): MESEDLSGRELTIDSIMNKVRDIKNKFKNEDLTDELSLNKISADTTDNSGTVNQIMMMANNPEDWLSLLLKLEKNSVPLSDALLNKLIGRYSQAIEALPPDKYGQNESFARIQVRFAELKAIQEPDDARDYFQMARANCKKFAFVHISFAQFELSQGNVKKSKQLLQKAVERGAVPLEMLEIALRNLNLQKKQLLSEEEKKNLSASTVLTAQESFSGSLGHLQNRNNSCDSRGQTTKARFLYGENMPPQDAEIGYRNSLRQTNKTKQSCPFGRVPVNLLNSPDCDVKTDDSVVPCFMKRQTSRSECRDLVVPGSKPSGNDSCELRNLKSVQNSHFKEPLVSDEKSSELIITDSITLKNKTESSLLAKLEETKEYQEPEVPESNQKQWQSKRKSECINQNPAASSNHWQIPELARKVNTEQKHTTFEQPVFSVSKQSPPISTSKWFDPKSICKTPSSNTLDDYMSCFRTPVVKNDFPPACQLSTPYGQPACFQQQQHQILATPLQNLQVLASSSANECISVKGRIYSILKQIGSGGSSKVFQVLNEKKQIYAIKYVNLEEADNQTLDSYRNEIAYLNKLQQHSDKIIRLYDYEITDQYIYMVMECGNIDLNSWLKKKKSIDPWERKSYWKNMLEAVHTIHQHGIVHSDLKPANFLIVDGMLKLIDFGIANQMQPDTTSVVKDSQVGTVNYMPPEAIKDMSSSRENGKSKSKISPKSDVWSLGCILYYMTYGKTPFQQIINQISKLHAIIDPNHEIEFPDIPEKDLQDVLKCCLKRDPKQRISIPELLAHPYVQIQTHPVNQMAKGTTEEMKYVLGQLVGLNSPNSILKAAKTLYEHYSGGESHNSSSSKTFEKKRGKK
Test: Mps-1 kinase assay (TR-FRET)
Assay type: biochemical
Conditions: Mps-1 TR-FRET kinase assay; avg; read-out: Mps1 avg (IC50 [mol/l])
Outline: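 Inhibition normalised between uninhibited reaction (0%) and enzyme-free wells (100%), using the blank-corrected TR-FRET 665/620 nm ratio after EDTA stop. Reaction: ~0.5 nM GST-Mps-1 full length, 10 μM ATP, 1 μM biotin-peptide, 60 min at 22 °C, after 15 min compound pre-binding, pH 7.7.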

Row | IC50 | SMILES
1 | 19 µM | Cc1nsc(Nc2cnc(C(F)(F)F)cn2)c1C(=O)Nc1ccc(OCCCN(C)CC(F)F)nc1 [Example 353, N-(6-{3-[(2,2-difluoroethyl)(methyl)amino]propoxy}pyridin-3-yl)-3-methyl-5-{[5-(trifluoromethyl)pyrazin-2-yl]amino}-1,2-thiazole-4-carboxamide]
2 | > 20 µM | Cc1nsc(Nc2cnc(C(F)(F)F)cn2)c1C(=O)Nc1ccc(O[C@@H]2CCN(CC(F)(F)F)C[C@H]2F)nc1 [Example 367, N-(6-{[(3R,4R)-3-fluoro-1-(2,2,2-trifluoroethyl)piperidin-4-yl]oxy}pyridin-3-yl)-3-methyl-5-{[5-(trifluoromethyl)pyrazin-2-yl]amino}-1,2-thiazole-4-carboxamide]
3 | > 20 µM | Cc1nsc(Nc2cnc(C(F)(F)F)cn2)c1C(=O)Nc1ccc(OCC2CCN(CCF)CC2)nc1 [Example 344, N-(6-{[1-(2-fluoroethyl)piperidin-4-yl]methoxy}pyridin-3-yl)-3-methyl-5-{[5-(trifluoromethyl)pyrazin-2-yl]amino}-1,2-thiazole-4-carboxamide]
4 | > 20 µM | CCN1CC[C@@H](Oc2ccc(NC(=O)c3c(C)nsc3Nc3cnc(C(F)(F)F)cn3)cn2)[C@H](F)C1 [Example 369, N-(6-{[(3R,4R)-1-ethyl-3-fluoropiperidin-4-yl]oxy}pyridin-3-yl)-3-methyl-5-{[5-(trifluoromethyl)pyrazin-2-yl]amino}-1,2-thiazole-4-carboxamide]
5 | ≥ 20 µM | Cc1nsc(Nc2cnc(C(F)(F)F)cn2)c1C(=O)Nc1ccc(OCCCN(C)CCC(F)(F)F)nc1 [Example 355, 3-methyl-N-(6-{3-[methyl(3,3,3-trifluoropropyl)amino]propoxy}pyridin-3-yl)-5-{[5-(trifluoromethyl)pyrazin-2-yl]amino}-1,2-thiazole-4-carboxamide]
6 | > 20 µM | Cc1nsc(Nc2cnc(C(F)(F)F)cn2)c1C(=O)Nc1ccc(OC[C@@H]2CCCN(CC(F)(F)F)C2)nc1 [Example 376, 3-methyl-N-(6-{[(3R)-1-(2,2,2-trifluoroethyl)piperidin-3-yl]methoxy}pyridin-3-yl)-5-{[5-(trifluoromethyl)pyrazin-2-yl]amino}-1,2-thiazole-4-carboxamide]
7 | > 20 µM | Cc1nsc(Nc2cnc(C(F)(F)F)cn2)c1C(=O)Nc1ccc(O[C@H]2CCN(CCC(F)(F)F)C[C@@H]2F)nc1 [Example 364, N-(6-{[(3S,4S)-3-fluoro-1-(3,3,3-trifluoropropyl)piperidin-4-yl]oxy}pyridin-3-yl)-3-methyl-5-{[5-(trifluoromethyl)pyrazin-2-yl]amino}-1,2-thiazole-4-carboxamide]
8 | ≥ 20 µM | Cc1nsc(Nc2cnc(C(F)(F)F)cn2)c1C(=O)Nc1ccc(OCCN(C)CCF)nc1 [Example 348, N-(6-{2-[(2-fluoroethyl)(methyl)amino]ethoxy}pyridin-3-yl)-3-methyl-5-{[5-(trifluoromethyl)pyrazin-2-yl]amino}-1,2-thiazole-4-carboxamide]
9 | ≥ 20 µM | Cc1nsc(Nc2cnc(C(F)(F)F)cn2)c1C(=O)Nc1ccc(OCC2CCCN(CC(F)F)C2)nc1 (centres unmarked) [Example 327, N-(6-{[1-(2,2-difluoroethyl)piperidin-3-yl]methoxy}pyridin-3-yl)-3-methyl-5-{[5-(trifluoromethyl)pyrazin-2-yl]amino}-1,2-thiazole-4-carboxamide]
10 | ≥ 20 µM | Cc1nsc(Nc2cc(C#N)ccn2)c1C(=O)Nc1ccc(OC2CCCN(C(=O)OC(C)(C)C)C2)nc1 (centres unmarked) [Example 34, tert-Butyl 3({5-[({5-[(4-cyanopyridin-2-yl)amino]-3-methyl-1,2-thiazol-4-yl}-carbonyl)amino]pyridin-2-yl}oxy)piperidine-1-carboxylate]
11 | ≥ 20 µM | Cc1nsc(Nc2cnc(C(F)(F)F)cn2)c1C(=O)Nc1ccc(OCCNCCC(F)(F)F)nc1 [Example 323, 3-methyl-5-{[5-(trifluoromethyl)pyrazin-2-yl]amino}-N-(6-{2-[(3,3,3-trifluoropropyl)amino]ethoxy}pyridin-3-yl)-1,2-thiazole-4-carboxamide]
